Where a name gives a salt, the structure may show the parent alone.

A short description of series [1]: Chemical stability at pH 2.0. The class given is physicochemical. The settings on record: pH 2 aqueous buffer, 3 h incubation at 37° C., LCMS. The method, then:
(§1) The compounds of the invention were studied for their chemical stability:
10 mM DMSO solution of the compound of the formula (I) was prepared. 10 μl of the solution was added to 1 ml of pH 2 aqueous buffer at 37° C. The solution was kept at 37° C. At each time point, a small aliquote was taken and the sample was analyzed by LCMS.

A short description of series [2]: Chemical stability at pH 7.4. The following applies: pH 7.4 aqueous phosphate buffer, 3 h incubation at 37° C., LCMS. The class given is physicochemical. The method, then: as §1
10 mM DMSO solution of the compound of the formula (I) was prepared. 10 μl of the solution was added to 1 ml of pH 7.4 aqueous phosphate buffer at 37° C. The solution was kept at 37° C. At each time points, a small aliquote was taken and the sample was analyzed by LCMS.

The nature of series [3]: Stability of the isolated compound (observation in synthesis). Format: physicochemical. The following applies: after column chromatography, brown oil. How it is done: Chloromethyl (4S,5S)-5-((2S)-2-{[(3-amino-2,2-dimethyl-3-oxopropyl)amino]carbonyl}-3-methylbutyl)-4-{(2S)-2-[4-methoxy-3-(3-methoxypropoxy)benzyl]-3-methylbutyl}-1,3-oxazolidine-3-carboxylate (191 mg) and sodium iodide (135 mg) were mixed with dry acetonitrile and heated under stirring at 75° C. for 1 h 20 min. Full conversion according to LC-MS. Reaction mixture was mixed with water and extracted into DCM, washed with brine, dried over MgSO4. 186 mg of crude product was obtained, which was purified by column chromatography on silica gel (EtOAc) to give 72 mg of pure material as brown oil. […] LCMS: 748.3 [M+1]^+, 770.3 [M+Na]^+.

The conditions of series [4]: Clinical Pharmacokinetics, 2008, 47, 515-531; cited from earlier work.
A short description of series [5]: In vivo bioavailability experiment: plasma aliskiren after a single i.v. or oral dose. The following applies: male, Sprague-Dawley, rat, rats, plasma up to 24 h. The method, then: For comparison, aliskiren hemifumarate was dosed both i.v. (intravenous) and orally. For all experiment, the compounds were administrated to three individually weighted male Sprague-Dawley rats. For all po dosing, the dose was 25 μmole/kg in a dose volume of 8 ml/kg and the dose vehicle was 50% propylene glycol/50% pH 4.75 buffer (0.1M aqueous buffer of NaOAc/HOAc) by volume ratio. […] For the i.v. dosing of the compounds of invention, a vehicle of 45% PEG400/55% pH 4.75 buffer (0.1M aqueous buffer of NaOAc/HOAc) by volume ratio was used and the dose were 5 μmole/kg in a dose volume of 1.5 ml/kg. Male Sprague-Dawley rats were fasted for about 16-17 h before po dosing and fasting lasted about 2-3 h post-dose. Water was given ad libitum. The blood samples were taken at different time points up to 24 h. For i.v. dosing group, at 5 min, 15 min, 30 min, 1 h, 2 h, 4 h, 6 h, 8 h, 24 h. For oral doing group, at 15 min, 30 min, 1 h, 2 h, 4 h, […], 24 h. The blood samples were collected in heparinized tube and centrifuged at 3500 rpm for 5 min. The plasma samples were stored at about −20° C. for analysis.
After the work-up of the plasma samples, LC-MS/MS was used for the quantitation of the aliskiren and the compounds of the invention. Standard curves were made for aliskiren and the substances for study.

With `COCCCOc1cc(C[C@@H](C[C@H]2[C@H](C[C@H](C(=O)NCC(C)(C)C(N)=O)C(C)C)OCN2C(=O)OCOC(=O)C2(CN)CC2)C(C)C)ccc1OC` [Example 53, {1-[({[((4S,5S)-5-((2S)-2-{[(3-amino-2,2-dimethyl-3-oxopropyl)amino]carbonyl}-3-methylbutyl)-4-{(2S)-2-[4-methoxy-3-(3-methoxypropoxy)benzyl]-3-methylbutyl}-1,3-oxazolidin-3-yl)carbonyl]oxy}methoxy)carbonyl]cyclopropyl}methanaminium trifluoroacetate], the “Chemical stability pH 2 (decomposition)” value in series [1] is on record as “A (Less than 5% decomposition after 3 h incubation at 37° C.)”. In addition, the “Chemical stability pH 7.4 (decomposition)” value in series [2] is on record as “C (Less than 50% decomposition after 3 h incubation at 37° C.)”.
Take `COCCCOc1cc(C[C@@H](C[C@H]2[C@H](C[C@H](C(=O)NCC(C)(C)C(N)=O)C(C)C)OCN2C(=O)OCOC(=O)C2COCOC2)C(C)C)ccc1OC` [Example 32, [(1,3-dioxan-5-ylcarbonyl)oxy]methyl (4S,5S)-5-((2S)-2-{[(3-amino-2,2-dimethyl-3-oxopropyl)amino]carbonyl}-3-methylbutyl)-4-{(2S)-2-[4-methoxy-3-(3-methoxypropoxy)benzyl]-3-methylbutyl}-1,3-oxazolidine-3-carboxylate]: the “Chemical stability pH 2 (decomposition)” value in series [1] is given as “A (Less than 5% decomposition after 3 h incubation at 37° C.)”. In addition, the “Chemical stability pH 7.4 (decomposition)” value in series [2] was “B (Less than 25% decomposition after 3 h incubation at 37° C.)”.
Regarding `COCCCOc1cc(C[C@@H](C[C@H]2[C@H](C[C@H](C(=O)NCC(C)(C)C(N)=O)C(C)C)OCN2C(=O)OCOC(=O)C(C)(C)C)C(C)C)ccc1OC` [Example 6, (4S,5S)-pivaloyloxymethyl 5-[(S)-2-(3-amino-2,2-dimethyl-3-oxopropylcarbamoyl)-3-methylbutyl]-4-{(S)-2-[4-methoxy-3-(methoxypropoxy)benzyl]-3-methylbutyl}oxazolidine-3-carboxylate], in series [1], the “Chemical stability pH 2 (decomposition)” value is reported as “A (Less than 5% decomposition after 3 h incubation at 37° C.)”. Moreover, the “Chemical stability pH 7.4 (decomposition)” value in series [2] is “B (Less than 25% decomposition after 3 h incubation at 37° C.)”.
Turning to `COCCCOc1cc(C[C@@H](C[C@H]2[C@H](C[C@H](C(=O)NCC(C)(C)C(N)=O)C(C)C)OCN2C(=O)OCI)C(C)C)ccc1OC` [Example 14, Iodomethyl (4S,5S)-5-((2S)-2-{[(3-amino-2,2-dimethyl-3-oxopropyl)amino]carbonyl}-3-methylbutyl)-4-{(2S)-2-[4-methoxy-3-(3-methoxypropoxy)benzyl]-3-methylbutyl}-1,3-oxazolidine-3-carboxylate], in series [3], the “stability of the compound” value is “not stable and decomposes rather rapidly”.
For the compound `COCCCOc1cc(C[C@@H](C[C@H]2[C@H](C[C@H](C(=O)NCC(C)(C)C(N)=O)C(C)C)OCN2C(=O)OCOC(=O)C2(N)CC2)C(C)C)ccc1OC.O=C(O)C(F)(F)F` [Example 43, {[(1-aminocyclopropyl)carbonyl]oxy}methyl (4S,5S)-5-((2S)-2-{[(3-amino-2,2-dimethyl-3-oxopropyl)amino]carbonyl}-3-methylbutyl)-4-{(2S)-2-[4-methoxy-3-(3-methoxypropoxy)benzyl]-3-methylbutyl}-1,3-oxazolidine-3-carboxylate, trifluoroacetate], the “Chemical stability pH 2 (decomposition)” value in series [1] is “A (Less than 5% decomposition after 3 h incubation at 37° C.)”. Moreover, the “Chemical stability pH 7.4 (decomposition)” value in series [2] is recorded as “B (Less than 25% decomposition after 3 h incubation at 37° C.)”.
Take `COCCCOc1cc(C[C@@H](C[C@H]2[C@H](C[C@H](C(=O)NCC(C)(C)C(N)=O)C(C)C)OCN2C(=O)OCOC(=O)c2cncn2C)C(C)C)ccc1OC` [Example 44, {[(1-methyl-1H-imidazol-5-yl)carbonyl]oxy}methyl (4S,5S)-5-((2S)-2-{[(3-amino-2,2-dimethyl-3-oxopropyl)amino]carbonyl}-3-methylbutyl)-4-{(2S)-2-[4-methoxy-3-(3-methoxypropoxy)benzyl]-3-methylbutyl}-1,3-oxazolidine-3-carboxylate]: the “Chemical stability pH 2 (decomposition)” value in series [1] is recorded as “A (Less than 5% decomposition after 3 h incubation at 37° C.)”. For the same compound, the “Chemical stability pH 7.4 (decomposition)” value in series [2] is reported as “A (Less than 5% decomposition after 3 h incubation at 37° C.)”.
With `COCCCOc1cc(C[C@@H](C[C@H]2[C@H](C[C@H](C(=O)NCC(C)(C)C(N)=O)C(C)C)OCN2C(=O)OCOC(=O)OC2CCN(C)CC2)C(C)C)ccc1OC` [Example 35, ({[(1-methylpiperidin-4-yl)oxy]carbonyl}oxy)methyl (4S,5S)-5-((2S)-2-{[(3-amino-2,2-dimethyl-3-oxopropyl)amino]carbonyl}-3-methylbutyl)-4-{(2S)-2-[4-methoxy-3-(3-methoxypropoxy)benzyl]-3-methylbutyl}-1,3-oxazolidine-3-carboxylate], the “Chemical stability pH 2 (decomposition)” value in series [1] is “A (Less than 5% decomposition after 3 h incubation at 37° C.)”. In series [2], the “Chemical stability pH 7.4 (decomposition)” value is “A (Less than 5% decomposition after 3 h incubation at 37° C.)”.
Turning to `COCCCOc1cc(C[C@@H](C[C@H](N)[C@@H](O)C[C@H](C(=O)NCC(C)(C)C(N)=O)C(C)C)C(C)C)ccc1OC` [Aliskiren, (2S,4S,5S,7S)—N-(2-Carbamoyl-2-methylpropyl)-5-amino-4-hydroxy-2,7-diisopropyl-8-[4-methoxy-3-(3-methoxypropoxy)phenyl]-octanamide, reference compound], the “Chemical stability pH 2 (decomposition)” value in series [1] is “A (Less than 5% decomposition after 3 h incubation at 37° C.)”. Moreover, in series [2], the “Chemical stability pH 7.4 (decomposition)” value is “A (Less than 5% decomposition after 3 h incubation at 37° C.)”. In addition, the oral bioavailability result in series [4] is recorded as “about 2.6%”.
Consider `COCCCOc1cc(C[C@@H](C[C@H]2[C@H](C[C@H](C(=O)NCC(C)(C)C(N)=O)C(C)C)OCN2C(=O)OCOC(=O)OC(C)C)C(C)C)ccc1OC` [Example 12, (4S,5S)-(isopropoxycarbonyloxy)methyl 5-[(S)-2-(3-amino-2,2-dimethyl-3-oxopropylcarbamoyl)-3-methylbutyl]-4-{(S)-2-[4-methoxy-3-(methoxypropoxy)benzyl]-3-methylbutyl}oxazolidine-3-carboxylate], for which, in series [1], the “Chemical stability pH 2 (decomposition)” value is given as “A (Less than 5% decomposition after 3 h incubation at 37° C.)”. Moreover, in series [2], the “Chemical stability pH 7.4 (decomposition)” value is “B (Less than 25% decomposition after 3 h incubation at 37° C.)”.
As to `COCCCOc1cc(C[C@@H](C[C@H](N)[C@@H](O)C[C@H](C(=O)NCC(C)(C)C(N)=O)C(C)C)C(C)C)ccc1OC` [Aliskiren hemifumarate], the exposure AUC(0-t) (in general, the area under the concentration-time curve up to a stated or last time point) in series [5] (iv, i.v. 5 μmole/kg) turned out to be 994 ± 162 ng·h/mL; in series [5] (po, p.o. 25 μmole/kg), 28 ± 20.5 ng·h/mL.
On to `COCCCOc1cc(C[C@@H](C[C@H]2[C@H](C[C@H](C(=O)NCC(C)(C)C(N)=O)C(C)C)OCN2C(=O)OCOC(=O)C(C)(C)CO)C(C)C)ccc1OC` [Example 27, [(3-hydroxy-2,2-dimethylpropanoyl)oxy]methyl (4S,5S)-5-((2S)-2-{[(3-amino-2,2-dimethyl-3-oxopropyl)amino]carbonyl}-3-methylbutyl)-4-{(2S)-2-[4-methoxy-3-(3-methoxypropoxy)benzyl]-3-methylbutyl}-1,3-oxazolidine-3-carboxylate], for which the “Chemical stability pH 2 (decomposition)” value in series [1] is recorded as “A (Less than 5% decomposition after 3 h incubation at 37° C.)”. Further, the “Chemical stability pH 7.4 (decomposition)” value in series [2] is “A (Less than 5% decomposition after 3 h incubation at 37° C.)”.

(Values after patent US20130005730A1, “NOVEL 1,3-OXAZOLIDINE COMPOUNDS AND THEIR USE AS RENIN INHIBITORS” (priority 2009, published 2013).)
